The source of these data is US8975249B2, “Heterocyclic compounds and uses thereof” (Celgene Avilomics Research, Inc., priority 2010, dated 2015).

For assay [1], the target named is WT EGFR (A431 cells) (Homo sapiens (Human), UniProt P00533). The experiment in a line: Phospho-EGFR signaling immunoblot in A431 cells (WT EGFR). The format is cell-based. The note with it: 1 hr treatment, EGF stimulated, phospho-EGFR (Y1068). How it is done: (§1) A431 human epidermoid carcinoma, H1975 human NSCLC and HCC827 human NSCLC adenocarcinoma cells were obtained from the American Type Culture Center (Manassas, Va.). A431 cells were grown in DMEM (Invitrogen, Carlsbad, Calif.) supplemented with 10% FBS (HyClone, South Logan, Utah) and 1% Penicillin-Streptomycin (P/S, Lonza, Walkersville, Md.).
(§2) All primary antibodies were obtained from Cell Signaling (Danvers, Mass.) and used at 1:1000. Secondary antibodies were used at 1:10,000. Goat anti-mouse IgG IRDye 800CW antibody was obtained from LiCor Biosciences (Lincoln, Nebr.) and goat anti-rabbit IgG Alexa Fluor 680 was obtained from Invitrogen.
(§3) Cells were grown in 12-well plates (Corning, Coring, N.Y.) to 90% confluence and then incubated in low-serum (0.1% FBS) media for 16-18 hr. […] A431 cells were then stimulated with 50 ng/ml EGF (Peprotech, Rocky Hill, N.J.) for 15 min. After treatment, cell monolayers were washed with cold PBS (Invitrogen) and immediately lysed by scrapping into 60 uL cold Cell Extraction Buffer (Invitrogen) supplemented with Complete Protease inhibitors (Roche, Indianapolis, Ind.) and PhosphoSTOP (Roche) phosphatase inhibitors.
(§4) Phospho-protein signals were quantitated using Odyssey Infrared Imaging (Li-Cor Biosciences).
(§5) To assess phosphor-EGFR signaling, blots were probed with rabbit anti-Phospho-EGFR (Y1068) and mouse total anti-EGFR antibodies. Phospho-EGFR signal was normalized to total EGFR expression for each sample. […] Normalized data was fitted using a sigmoidal curve analysis program (Graph Pad Prism version 5) with variable Hill slope to determine the EC50 values.
(§6) The compound numbers recited in Table 4 correspond to the compound numbers in Table 1.

The subject of assay [2] is H1975 cells (EGFR L858R/T790M). The experiment in a line: Cell proliferation (CellTiter Glo), H1975 cells. The note with it: proliferation GI50 WT EGFR / H1975. On the technique in general: Cellular ATP, detected with luciferase, serves as a proxy for viable cell number.
The subject of assay [3] is HCC827 cells (EGFR delE746-A750). As to the kind of experiment: Cell proliferation (CellTiter Glo), HCC827 cells. The note with it: proliferation GI50 WT EGFR / HCC827.
Assay [4] has as its target EGFR (WT) (Homo sapiens (Human), UniProt P00533). As to the kind of experiment: Omnia biochemical assay, EGFR-WT active enzyme. The settings on record: [EGFR-WT]=5 nM, [ATP]=15 uM, 30 min pre-incubation. How it is done:
Kinase reactions were started with the addition of 45 μL of the ATP/Tyr-Sox peptide substrate mix and monitored every 71 seconds for 60 minutes at λex360/λem485 in a Synergy^4 plate reader from BioTek (Winooski, Vt.).
The compound numbers correspond to the compound numbers in Table 1.

Assay [5] has as its target EGFR double mutation L858R/T790M (H1975 cells) (Homo sapiens (Human), UniProt P00533, L858R/T790M). As to the kind of experiment: Phospho-EGFR signaling immunoblot in H1975 cells. The format is cell-based. The note with it: for EC50: H1975 cells, 1 hr treatment, phospho-EGFR (Y1068); for Ratio WT/mutant (H1975): signaling EC50 WT EGFR / H1975. How it is done: as §1, §2, §3, §4, §5, §6
Background: In western blotting, separated proteins are transferred to a membrane and probed.

For orientation: EC50 means the concentration that produces a half-maximal response. Higher therefore signals a less potent agent. By IC50 is commonly meant the concentration that inhibits the measured activity by half. As for `C=CC(=O)Nc1cccc(Oc2nc(Nc3ccc(N4CCN(S(N)(=O)=O)CC4)cc3OC)ncc2C(F)(F)F)c1` [Compound I-27, N-(3-(2-(2-methoxy-4-(4-sulfamoylpiperazin-1-yl)phenylamino)-5-(trifluoromethyl)pyrimidin-4-yloxy)phenyl)acrylamide], the EC50 in assay [1] is above 1000 nM. The “Ratio WT/mutant (H1975)” value in assay [2] is above 1. In assay [3], the “Ratio WT/mutant (HCC827)” value is recorded as above 10. The IC50 in assay [4] was 1 to 10 nM.
Take `C=CC(=O)Nc1cccc(Nc2nc(Nc3ccc(N4CCN(C(C)=O)CC4)cc3OC)ncc2Cl)c1` [Compound I-8, N-(3-(2-(4-(4-acetylpiperazin-1-yl)-2-methoxyphenylamino)-5-chloropyrimidin-4-ylamino)phenyl)acrylamide]: the EC50 in assay [1] and in assay [5] was above 1000 nM throughout. Moreover, the “Ratio WT/mutant (H1975)” value in assay [2] and in assay [5] was above 1 throughout. Besides, the “Ratio WT/mutant (HCC827)” value in assay [3] is above 20. Further, in assay [4], the 50% inhibitory concentration (IC50) was in the range of 10 to 30 nM.
With `C=CC(=O)Nc1cccc(Oc2nc(Nc3ccc(N4CCOCC4)cc3OC(F)F)ncc2C(F)(F)F)c1` [Compound I-13, N-(3-(2-(2-(difluoromethoxy)-4-morpholinophenylamino)-5-(trifluoromethyl)pyrimidin-4-yloxy)phenyl)acrylamide], in assay [2], the “Ratio WT/mutant (H1975)” value is above 10. The “Ratio WT/mutant (HCC827)” value in assay [3] is recorded as above 50. Also, the IC50 in assay [4] lay within 30 to 100 nM. Further, the EC50 in assay [5] lay within 10 to 100 nM.
On to `C=CC(=O)Nc1cccc(Nc2nc(Nc3ccc(N4CCN(S(C)(=O)=O)CC4)cc3OC)ncc2Cl)c1` [Compound I-41, N-(3-(5-chloro-2-(2-methoxy-4-(4-(methylsulfonyl)piperazin-1-yl)phenylamino)pyrimidin-4-ylamino)phenyl)acrylamide], for which the EC50 in assay [1] and in assay [5] was above 1000 nM in each case. Moreover, the “Ratio WT/mutant (H1975)” value in assay [2] and in assay [5] was above 1 each time. In addition, the “Ratio WT/mutant (HCC827)” value in assay [3] is above 20. Also, the IC50 in assay [4] is 30 to 100 nM.
For `C=CC(=O)Nc1cccc(Nc2nc(Nc3ccc(N4CCN(C(C)=O)CC4)cc3OC)ncc2Br)c1` [Compound I-40, N-(3-(2-(4-(4-acetylpiperazin-1-yl)-2-methoxyphenylamino)-5-bromopyrimidin-4-ylamino)phenyl)acrylamide], the concentration giving a half-maximal response (EC50) in assay [1] and in assay [5] was above 1000 nM throughout. Moreover, the “Ratio WT/mutant (H1975)” value in assay [2] is given as above 5; in assay [5], above 1. Moreover, the “Ratio WT/mutant (HCC827)” value in assay [3] is reported as above 10. The 50% inhibitory concentration (IC50) in assay [4] lay within 10 to 30 nM.
Consider `C=CC(=O)Nc1cccc(Nc2nc(Nc3ccc(N4CCN(C(=O)C(C)(C)C)CC4)cc3OC)ncc2C(F)(F)F)c1` [Compound I-34, N-(3-(2-(2-methoxy-4-(4-pivaloylpiperazin-1-yl)phenylamino)-5-(trifluoromethyl)pyrimidin-4-ylamino)phenyl)acrylamide], for which the results for the concentration giving a half-maximal response (EC50) in assay [1] and in assay [5] were above 1000 nM and 100 to 500 nM, respectively. Also, the “Ratio WT/mutant (H1975)” value in assay [2] is above 5; in assay [5] it was above 35. Further, in assay [3], the “Ratio WT/mutant (HCC827)” value is recorded as above 50. Further, the IC50 in assay [4] lay in the range of 30 to 100 nM.
On to `C=CC(=O)Nc1cccc(Nc2nc(Nc3ccc(N4CCN(C(=O)CC)CC4)cc3OC)ncc2C(F)(F)F)c1` [Compound I-35, N-(3-(2-(2-methoxy-4-(4-propionylpiperazin-1-yl)phenylamino)-5-(trifluoromethyl)pyrimidin-4-ylamino)phenyl)acrylamide], for which the EC50 in assay [1] is above 1000 nM; in assay [5] it was below 10 nM. Besides, in assay [2], the “Ratio WT/mutant (H1975)” value was above 10. The “Ratio WT/mutant (HCC827)” value in assay [3] is recorded as above 25. In addition, the concentration for half-maximal inhibition (IC50) in assay [4] lay in the range of 1 to 10 nM.
As to `C=CC(=O)Nc1cccc(Nc2nc(Nc3ccc(N4CCCN(C(=O)OC(C)(C)C)CC4)cc3OC)ncc2C(F)(F)F)c1` [Compound I-44, tert-butyl 4-(4-(4-(3-acrylamidophenylamino)-5-(trifluoromethyl)pyrimidin-2-ylamino)-3-methoxyphenyl)-1,4-diazepane-1-carboxylate], the EC50 in assay [1] was above 1000 nM; in assay [5], 500 to 1000 nM. The “Ratio WT/mutant (H1975)” value in assay [2] and in assay [5] was above 5 each time. In assay [3], the “Ratio WT/mutant (HCC827)” value is above 5. Also, the IC50 in assay [4] is 300 to 1000 nM.
Regarding `C=CC(=O)Nc1cccc(Nc2nc(Nc3ccc(N4CCS(=O)(=O)CC4)cc3OC)ncc2C(F)(F)F)c1` [Compound I-49, N-(3-(2-(2-methoxy-4,4-dioxo-4-thiomorpholinophenylamino)-5-(trifluoromethyl)pyrimidin-4-ylamino)phenyl)acrylamide], the 50% effective concentration (EC50) in assay [1] is above 1000 nM; in assay [5], 10 to 100 nM. For the same compound, the “Ratio WT/mutant (H1975)” value in assay [2] is recorded as above 10; in assay [5], above 20. Moreover, the “Ratio WT/mutant (HCC827)” value in assay [3] is on record as above 25. For the same compound, in assay [4], the IC50 fell in the range of 1 to 10 nM.
Regarding `C=CC(=O)Nc1cccc(Oc2nc(Nc3ccc(N4CCN(S(C)(=O)=O)CC4)cc3OC)ncc2Cl)c1` [Compound I-26, N-(3-(5-chloro-2-(2-methoxy-4-(4-(methylsulfonyl)piperazin-1-yl)phenylamino)pyrimidin-4-yloxy)phenyl)acrylamide], the EC50 was above 1000 nM in assay [1] and 100 to 500 nM in assay [5]. Further, the “Ratio WT/mutant (H1975)” value in assay [2] is reported as above 1; in assay [5], above 40. Further, the “Ratio WT/mutant (HCC827)” value in assay [3] is given as above 35. Also, the half-inhibitory concentration (IC50) in assay [4] was in the range of 10 to 30 nM.
For the compound `C=CC(=O)Nc1cccc(Nc2nc(Nc3ccc(N4CCN(C(=O)CO)CC4)cc3OC)ncc2C(F)(F)F)c1` [Compound I-6, N-(3-(2-(4-(4-(2-hydroxyacetyl)piperazin-1-yl)-2-methoxyphenylamino)-5-(trifluoromethyl)pyrimidin-4-ylamino)phenyl)acrylamide], the EC50 was above 1000 nM in assay [1] and 10 to 100 nM in assay [5]. In addition, the “Ratio WT/mutant (H1975)” value is above 10 in assay [2] and above 20 in assay [5]. For the same compound, the “Ratio WT/mutant (HCC827)” value in assay [3] was above 40. In assay [4], the IC50 lay within 1 to 10 nM.
With `C=CC(=O)Nc1cccc(Oc2nc(Nc3ccc(N4CCN(S(C)(=O)=O)CC4)cc3OC)ncc2C(F)(F)F)c1` [Compound I-22, N-(3-(2-(2-methoxy-4-(4-(methylsulfonyl)piperazin-1-yl)phenylamino)-5-(trifluoromethyl)pyrimidin-4-yloxy)phenyl)acrylamide], the EC50 in assay [1] is above 1000 nM; in assay [5], 100 to 500 nM. In addition, the figures for the “Ratio WT/mutant (H1975)” value in assay [2] and in assay [5] were above 10 and above 35, respectively. Moreover, in assay [3], the “Ratio WT/mutant (HCC827)” value is reported as above 35. Moreover, the half-inhibitory concentration (IC50) in assay [4] fell in the range of 30 to 100 nM.
For the compound `C=CC(=O)Nc1cccc(Nc2nc(Nc3ccc(N4CCN(C(=O)OC)CC4)cc3OC)ncc2C(F)(F)F)c1` [Compound I-29, methyl 4-(4-(4-(3-acrylamidophenylamino)-5-(trifluoromethyl)pyrimidin-2-ylamino)-3-methoxyphenyl)piperazine-1-carboxylate], the half-maximal effective concentration (EC50) in assay [1] is above 1000 nM. Also, the “Ratio WT/mutant (H1975)” value in assay [2] is given as above 10. Besides, the “Ratio WT/mutant (HCC827)” value in assay [3] was above 15. For the same compound, the IC50 in assay [4] fell in the range of 10 to 30 nM.
The corresponding values for `C=CC(=O)Nc1cccc(Oc2nc(Nc3ccc(N4CCN(C(C)=O)CC4)cc3OC)ncc2Cl)c1` [Compound I-9, N-(3-(2-(4-(4-acetylpiperazin-1-yl)-2-methoxyphenylamino)-5-chloropyrimidin-4-yloxy)phenyl)acrylamide] are above 1000 nM, above 5, above 50 and 1 to 10 nM.
